Source: US8951988B2, “Azidothymidine quinoline conjugated compound, preparation method therefor and application thereof in anti-hepatoma therapy” (Huazhong University of Science and Technology, priority 2012, dated 2015)
“And” between values parts separate entries of the source, which are not always exact repeats. Equal entries are not always repeated.

Key:
[1] = tested on: hepatoblastoma cell line HepG2; test: MTT cell viability assay, HepG2; type: cell-based, human; conditions: MTT after 72 hours
Experimental: (§1) Cell culture: cancer cell lines HepG2 and Hep3B are obtained from ATCC (VA, USA), Human liver cells HL-7702 and murine liver cancer cells H22 are obtained from Shanghai Institute of Life Science Cell Culture Center (Shanghai, China). All the cells are maintained in high glucose DMEM or RPMI-1640 medium (Invitrogen, GA, USA) supplemented with 10% heat-inactivated fetal bovine serum (FBS), 25 mM HEPES, 2 mM L-glutamine, 0.1 mM nonessential amino acids, 1.0 mM sodium pyruvate, 50 U/mL penicillin, and 50 ug/ml streptomycin at 37° C. and 5% CO2.
(§2) Methods of cell viability assay: liver cells are seeded on 96-well plates, AZT-QX, Zidovudine, quinoline piperazine derivatives and doxorubicin are added in respectively, the concentration thereof are from 1 nM to […]. After 72 hours, an MTT assay is carried out to determine the cell viability [See method in: Zhou, et al. Chem. Res. Toxicol. 2008, 21, 732-738.].
(§3) Selective biological activity of AZT-QX is assessed using cell viability assays MTT on human liver carcinoma cells with hepatitis B Hep3B, hepatoblastoma cell line HepG2 and normal human liver cells HL-7702 (FIG. 3).
(§4) FIG. 3 illustrates determined cell viability of Hep3B hepatoma cells with hepatitis B, a HepG2 hepatoblastoma cell line and HL-7702 normal […] treated with AZT-QX (FIG. 3a), doxorubicin (FIG. 3b), Pip-QX (FIG. 3c), and Zidovudine (FIG. 3d).

[2] = tested on: hepatoma cells with hepatitis B; test: anti-BrdU fluorescence assay of nucleic acid synthesis, hepatoma cells; type: cell-based
Excerpt: (§5) The anti-BrdU fluorescence assay is used to determine the nucleic acid synthesis in cells (FIG. 4).
(§6) FIG. 4 illustrates fluorescence images of an anti-BrdU assay of nucleic acid synthesis in cells. As shown in the figure, the green fluorescence illustrates the nucleic acid synthesis in cells, and the blue fluorescence illustrates the nuclear staining.

[3] = tested on: normal human liver cells HL-7702; test: MTT cell viability assay, HL-7702; conditions: MTT after 72 hours
Experimental: as §1, §2, §3, §4

[4] = tested on: human liver carcinoma cells with hepatitis B Hep3B; test: MTT cell viability assay, Hep3B; type: cell-based
Experimental: as §1, §2, §3, §4

[5] = tested on: H22 liver cancer cells; test: subcutaneous H22 liver tumor model in mice, tumor size and volume; type: in vivo, BALB/c mice; conditions: for volume: individual mice, 50 μM 100 μl on day 1 and day 7
Experimental: The liver cancer tumor models are established by subcutaneously injecting H22 hepatoma cells. […] The further statistical analysis (see FIG. 6) confirms that as compared with the other two, AZT-QX has greater effectiveness p<0.01, and at a low dosage (0.13 mg/kg at a time, twice).
FIG. 6 illustrates the average growth of tumors in mice after administration and tumors in mice after 12 days, in which FIG. 6a is a figure of the average growth of tumors in mice; FIG. 6b is contrast of tumors in mice 12 days after different drug treatments. The control is a blank contrast, AZT is Zidovudine, AZT-QX is application of the compound of the invention.

[6] = body weight of mice in the H22 liver tumor model; conditions: individual mice, 50 μM 100 μl on day 1 and day 7, in g (unit assumed)
Excerpt: Animal groups and drug administration: mice are divided into 3 groups once tumors reach an average size of 8.8×8.8 mm.

[7] = tested on: normal liver cells HL-7702; test: anti-BrdU fluorescence assay of nucleic acid synthesis, normal liver cells; type: cell-based, human
Excerpt: as §5, §6

Row | SMILES | toxicity to / killing of HepG2 cells (in words) [1] | nucleic acid synthesis in hepatoma cells (green fluorescence) [2] | toxicity to normal liver cells HL-7702 (in words) [3] | toxicity to / killing of Hep3B cells (in words) ([4]; MTT after 72 hours) | volume ([5]; Day 1, in mm³ (unit assumed)) | volume ([5]; Day 3, in mm³ (unit assumed)) | volume ([5]; Day 4, in mm³ (unit assumed)) | volume ([5]; Day 5, in mm³ (unit assumed)) | volume ([5]; Day 6, in mm³ (unit assumed)) | volume ([5]; Day 7, in mm³ (unit assumed)) | volume ([5]; Day 8, in mm³ (unit assumed)) | volume ([5]; Day 9, in mm³ (unit assumed)) | volume ([5]; Day 10, in mm³ (unit assumed)) | volume ([5]; Day 11, in mm³ (unit assumed)) | volume ([5]; Day 12, in mm³ (unit assumed)) | BW ([6]; Day 1) | BW ([6]; Day 2) | BW ([6]; Day 3) | BW ([6]; Day 4) | BW ([6]; Day 5) | also measured
1 | CN1CCN(C(=O)Oc2ccc3c(c2)-c2nc4ccccc4nc2[C@@H]2C(C)(C)CCC[C@]32C)CC1 [pip-QX] | killed all the liver cell lines non-selectively | effect similar to AZT-QX | killed all the liver cell lines non-selectively | killed all the liver cell lines non-selectively | – | – | – | – | – | – | – | – | – | – | – | – | – | – | – | – | –
2 | COc1cccc2c1C(=O)c1c(O)c3c(c(O)c1C2=O)C[C@@](O)(C(=O)CO)C[C@@H]3O[C@H]1C[C@H](N)[C@H](O)[C@H](C)O1 [doxorubicin] | – | – | more severe than to hepatoma cells | – | – | – | – | – | – | – | – | – | – | – | – | – | – | – | – | – | –
3 | Cc1cn([C@H]2C[C@H](N=[N+]=[N-])[C@@H](CO)O2)c(=O)[nH]c1=O [Zidovudine] | no significant toxicity | no effect in inhibiting nucleic acid synthesis | no significant toxicity | no significant toxicity | 220.5 and 364.5 and 405 | 320 and 665.5 and 600 | 650 and 726 and 786.5 | 486 and 936 and 786.5 | 1028.5 and 1183 and 1470 | 1149.5 and 1687.5 and 1568 | 1368 and 3402 and 2560 | 1368 and 3610 and 3240 | 1368 and 3790.5 and 4851 | 1440 and 4400 and 5071.5 | 1960 and 5292 and 4851 | 26.9 and 29.9 and 31.9 | 26.8 and 31.5 and 32 | 26.8 and 31.5 and 31.8 | 27.2 and 31.4 and 33 | 27 and 31.3 and 32.7 | volume ([5]; Day 2, in mm³ (unit assumed)): 245 and 550 and 405; BW ([6]; Day 6): 27.4 and 31.3 and 33.8; BW ([6]; Day 7): 26.9 and 31.5 and 33.5; BW ([6]; Day 8): 26.6 and 32.7 and 34.1; BW ([6]; Day 9): 27 and 33.3 and 34.2; BW ([6]; Day 10): 27 and 34.5 and 34.4; BW ([6]; Day 11): 27.7 and 36.6 and 35.1; BW ([6]; Day 12): 28.8 and 37.4 and 35.9
4 | Cc1cn([C@H]2C[C@H](n3cc(CNC(=O)CCCCCOc4ccc5c(c4)-c4nc6ccccc6nc4[C@@H]4C(C)(C)CCC[C@]54C)nn3)[C@@H](CO)O2)c(=O)[nH]c1=O [AZT-QX, N-((1-(2-(hydroxymethyl)-5-(5-methyl-2,4-dioxo-3,4-dihydro-pyrimidin-1(2H)-yl)-tetrahydrofuran-3-yl)-1H-1,2,3-triazol-4-yl)methyl)-6-(4b,8,8-trimethyl-4-b,5,6,7,8,8a-hexahydrodibenzo[a,c]phenazin-2-yloxy)hexanamide] | – | effectively inhibits green fluorescence in hepatoma cells | – | – | 256 and 288 and 500 | 500 and 405 and 288 | 500 and 364.5 and 405 | 665.5 and 364.5 and 445.5 | 936 and 405 and 550 | 907.5 and 500 and 550 | 1080 and 500 and 600 | 1080 and 665.5 and 666 | 1080 and 786.5 and 726 | 1267.5 and 847 and 726 | 1267.5 and 1008 and 726 | 30.7 and 35.4 and 26.9 | 31.7 and 36.3 and 27.7 | 32 and 36 and 27.6 | 32.5 and 37.1 and 28 | 32.4 and 32.9 and 28.2 | nucleic acid synthesis in normal liver cells HL-7702 [7]: does not affect the nucleic acid synthesis; toxicity to human normal liver cells HL-7702 (in words) ([3]; at 200 μM): no significant toxicity; activity in combination with methotrexate ([4]; Hep3B cells, methotrexate added): additive effect; Hep3B cells killed ([4]; at 20 μM, MTT after 72 hours): 80%; activity after selective inhibition of thymidine kinase by siRNA ([4]; hepatoma cells with hepatitis B, thymidine kinase siRNA): decreased; volume ([5]; Day 2): 364.5 and 288 (2×); average tumor growth after 12 days (in words) ([5]; injected intratumorally on day 1 and day 7, 100 μL): inhibits tumor growth; BW ([6]; Day 6): 32.2 and 37 and 28.1; BW ([6]; Day 7): 32 and 36.3 and 27.9; BW ([6]; Day 8): 33.2 and 36.6 and 28.7; BW ([6]; Day 9): 33.5 and 36.6 and 28.8; BW ([6]; Day 10): 34.1 and 36.7 and 28.7; BW ([6]; Day 11): 34.5 and 36.8 and 29; BW ([6]; Day 12): 35.8 and 37.9 and 29.5
